Laboratory results taken from patent publication US20110054017A1, “SUBSTITUTED FURANS AND THEIR USE” (priority 2008, published 2011).

Target: T1, Prostacyclin Receptors (IP Receptors) of Human Thrombocyte Membranes (Homo sapiens, UniProt P43119)
T1 construct: Thrombocyte membranes are obtained by centrifuging 50 ml human blood; tissue Maco Pharma, Langen; host or cells: human thrombocyte (platelet) membranes prepared from buffy coats
Test: Binding to prostacyclin receptors (IP receptors) of human thrombocyte membranes, 3H-Iloprost displacement
Details: 3 nM 3H-Iloprost, 60 min, room temperature
Procedure: B-1. Studies of Binding to Prostacyclin Receptors (IP Receptors) of Human Thrombocyte Membranes
Thrombocyte membranes are obtained by centrifuging 50 ml human blood (Buffy coats with CDP Stabilizer, from Maco Pharma, Langen) for 20 min at 160×g. Remove the supernatant (platelet-rich plasma, PRP) and then centrifuge again at 2000×g for 10 min at room temperature. Resuspend the sediment in 50 mM tris(hydroxymethyl)aminomethane, which has been adjusted to a pH of 7.4 with 1 N hydrochloric acid, and store at −20° C. overnight. On the next day, centrifuge the suspension at 80 000×g and 4° C. for 30 min. Discard the supernatant. Resuspend the sediment in 50 mM tris(hydroxymethyl)aminomethane/hydrochloric acid, 0.25 mM ethylene diamine tetraacetic acid (EDTA), pH 7.4, and then centrifuge once again at 80 000×g and 4° C. for 30 min. Take up the membrane sediment in binding buffer (50 mM tris(hydroxymethyl)-aminomethane/hydrochloric acid, 5 mM magnesium chloride, pH 7.4) and store at −70° C. until the binding test.
For the binding test, incubate 3 nM ^3H-Iloprost (592 GBq/mmol, from AmershamBioscience) for 60 min with 300-1000 μg/ml human thrombocyte membranes per charge (max. 0.2 ml) in the presence of the test substances at room temperature. After stopping, add cold binding buffer to the membranes and wash with 0.1% bovine serum albumin. After adding Ultima Gold Scintillator, quantify the radioactivity bound to the membranes using a scintillation counter. The nonspecific binding is defined as radioactivity in the presence of 1 μM Iloprost (from Cayman Chemical, Ann Arbor) and is as a rule <25% of the bound total radioactivity. The binding data (IC50 values) are determined using the program GraphPad Prism Version 3.02.

T1 sequence (P43119 whole entry): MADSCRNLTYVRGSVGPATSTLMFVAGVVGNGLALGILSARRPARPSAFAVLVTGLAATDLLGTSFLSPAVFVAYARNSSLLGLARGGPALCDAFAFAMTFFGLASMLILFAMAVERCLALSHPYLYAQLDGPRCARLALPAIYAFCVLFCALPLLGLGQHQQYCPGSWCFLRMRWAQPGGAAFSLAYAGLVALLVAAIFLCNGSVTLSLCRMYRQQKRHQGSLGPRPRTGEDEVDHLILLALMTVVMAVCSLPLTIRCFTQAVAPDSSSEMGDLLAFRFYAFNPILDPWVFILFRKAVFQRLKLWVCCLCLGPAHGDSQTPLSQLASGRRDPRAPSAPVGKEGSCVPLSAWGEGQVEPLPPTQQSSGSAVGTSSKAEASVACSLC

Question: Which IC50 does the source give for `COC(=O)CCCCCNC(=O)c1c(C)oc(-c2ccccc2)c1-c1ccc(OC)cc1` [Example 4, Methyl 6-({[4-(4-methoxyphenyl)-2-methyl-5-phenylfuran-3-yl]carbonyl}amino)hexanoater] here?
Answer: Its IC50 is 470 nM.

Question: `CCc1ccc(-c2c(-c3ccccc3)oc(C)c2C(=O)NCCCCCC(=O)O)cc1` [Example 18] was tested. Which IC50 did it give?
Answer: Its IC50 is 138 nM.

Question: How did the IC50 turn out when `COc1ccc(-c2c(-c3ccccc3)oc(C)c2C(=O)Nc2cccc(OCC(=O)O)c2)cc1` [Example 20] was run?
Answer: The IC50 was 438 nM.

Question: `COc1ccc(-c2c(-c3ccccc3)oc(C)c2C(=O)O[C@H](C)CCCCC(=O)O)cc1` [Example 21] was tested. Which IC50 did it give?
Answer: The IC50 was 315 nM.

Question: For `COc1ccc(-c2c(-c3ccccc3)oc(C)c2C(=O)NC(C)CCCCC(=O)O)cc1` (stereo not drawn) [Example 24], which IC50 is on record?
Answer: The IC50 was 476 nM.

Question: Which IC50 does the source give for `COc1ccc(-c2c(-c3ccccc3)oc(C)c2C(=O)N[C@H](C)CCCCC(=O)O)cc1` [Example 26] here?
Answer: Its IC50 is 670 nM.
